From PubChem BioAssay (NCI)
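Results reflect a 48-hour exposure of cells in 96-well plates to compound at five concentrations. At the GI50, growth is halved. The concentration for full growth arrest is given as TGI.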

What was measured:
Experiment in all cases: growth of human tumour cells (NCI), 48 h
ACHN renal = system: ACHN renal
CAKI-1 renal = system: CAKI-1 renal
DU-145 prostate = system: DU-145 prostate
HOP-62 NSCLC = system: HOP-62 NSCLC
K-562 leukemia = system: K-562 leukemia
MDA-MB-231 breast = system: MDA-MB-231 breast
NCI-H226 lung = system: NCI-H226 lung
OVCAR-3 ovarian = system: OVCAR-3 ovarian
SK-MEL-28 melanoma = system: SK-MEL-28 melanoma
SR leukemia = system: SR leukemia

| SMILES | TGI (ACHN renal) | TGI (CAKI-1 renal) | TGI (DU-145 prostate) | TGI (HOP-62 NSCLC) | TGI (K-562 leukemia) | TGI (MDA-MB-231 breast) | TGI (NCI-H226 lung) | TGI (OVCAR-3 ovarian) | TGI (SK-MEL-28 melanoma) | TGI (SR leukemia) | GI50 (ACHN renal) | GI50 (CAKI-1 renal) | GI50 (DU-145 prostate) | GI50 (HOP-62 NSCLC) | GI50 (K-562 leukemia) | GI50 (MDA-MB-231 breast) | GI50 (NCI-H226 lung) | GI50 (OVCAR-3 ovarian) | GI50 (SK-MEL-28 melanoma) | GI50 (SR leukemia) |
| --- | --- | --- | --- | --- | --- | --- | --- | --- | --- | --- | --- | --- | --- | --- | --- | --- | --- | --- | --- | --- |
| Fc1cccc(CSc2ncnc3c2ncn3C2CCCS2)c1 (configuration not stated) | 39.7 µM | > 100 µM | 50.4 µM | 40.3 µM | 84.2 µM | > 100 µM | 61.4 µM | 35.6 µM | 50.8 µM | 34 µM |  |  |  |  |  |  |  |  |  |  |
| O=C(O)c1ccc2c3c(ncnc13)-c1ccccc1C2=O | > 100 µM | > 100 µM | 2.83 µM | 3.75 µM | > 100 µM | > 100 µM | > 100 µM | > 100 µM | 4.04 µM | > 100 µM | 25.7 µM | > 81.1 µM | 1.46 µM | 1.76 µM | 42.1 µM | > 100 µM | 4.08 µM | 31.2 µM | 1.64 µM | 35.7 µM |
| Cc1cccc(Cl)c1NC(=O)c1cnc(Nc2cc(N3CCOCC3)cc(N3CCOCC3)c2)s1 | 0.171 µM | 0.0246 µM | > 3.6 µM | > 10 µM | > 10 µM | > 4.59 µM | > 10 µM | > 10 µM | > 10 µM | > 10 µM | 0.00887 µM | 0.00467 µM | 0.163 µM | 0.022 µM | 0.00147 µM | 0.0189 µM | 0.601 µM | 0.0644 µM | > 5.32 µM |  |
| Cn1c(/C=C(\C#N)c2cccc(C(F)(F)F)c2)nc2c(N3CCOCC3)nc(Cl)nc21 | 1.57 µM | 1.97 µM | 2.48 µM | 3.2 µM | 4.03 µM | 2.3 µM | 3.18 µM | 1.87 µM | 2.86 µM | 1.86 µM | 0.444 µM | 0.656 µM | 1.22 µM | 1.45 µM | 0.344 µM | 1.05 µM | 1.36 µM | 0.665 µM | 1.48 µM | 0.337 µM |
| CC(=O)C1COC(O)C1C (configuration not stated) | 80.9 µM | 62.9 µM | 70.8 µM | 33 µM | > 100 µM | 68 µM | 43.4 µM | 37 µM | 38.6 µM | 40.1 µM |  |  |  |  |  |  |  |  |  |  |
| COc1cc(F)cc([C@@H](CO)NC(=O)[C@@H](C)N2Cc3ccc(-c4nc(NC5CCOCC5)ncc4Cl)cc3C2=O)c1 | 99.1 µM | 69.1 µM | > 84.2 µM | > 86.2 µM | > 100 µM | 18.7 µM | 33.2 µM | > 68.6 µM | 0.0318 µM | 70.7 µM | 1.54 µM | 1.93 µM | 12.3 µM | 0.0519 µM | 0.536 µM | < 0.0175 µM | 1.3 µM | 16.5 µM | < 0.01 µM | 10.8 µM |
| COc1c2c(c(CC=C(C)C)c3oc(=O)c(-c4ccc(O)cc4)c(O)c13)OC(C)(C)C=C2 | 92.7 µM | > 100 µM | > 100 µM | 86.2 µM | > 100 µM | 65 µM | 62 µM | 67.2 µM | 73 µM | 79.9 µM |  |  |  |  |  |  |  |  |  |  |
| CN[C@@H]1C[C@H]2O[C@@](C)([C@@H]1OC)n1c3ccccc3c3c4c(c5c6ccccc6n2c5c31)C(=O)N[C@H]4O | > 10 µM | 0.0305 µM | > 5.9 µM | 0.766 µM | > 6.56 µM | 0.509 µM | > 4.01 µM | 1.99 µM | 1.48 µM | 1.92 µM | 0.036 µM | 0.00463 µM | 0.0448 µM | 0.0187 µM | 0.129 µM | 0.0227 µM | 0.0269 µM | 0.101 µM | 0.0845 µM | 0.0336 µM |
| O=C(/C=C/c1cccc([N+](=O)[O-])c1)c1ccc(O)c(CN2CCN(c3cc4c(cc3F)c(=O)c(C(=O)O)cn4C3CC3)CC2)c1 | 2.7 µM | 3.24 µM | 2.74 µM | 16.8 µM | > 100 µM | 4.02 µM | 15.2 µM | 3.41 µM | 3.2 µM | 53.2 µM | 1.4 µM | 1.63 µM | 1.41 µM | 3.47 µM | 0.404 µM | 1.89 µM | 3.49 µM | 1.77 µM | 1.75 µM | 0.398 µM |
| CCN(CC)CCCC(C)Nc1c2ccc(Cl)cc2nc2cc(OC)c(OC)cc12 (configuration not stated) | 2.97 µM | 5.78 µM | 11.2 µM |  | 8.77 µM | 3.97 µM | 5.39 µM | 7.63 µM | 3.37 µM | 13.6 µM | 1.18 µM | 2.01 µM | 2.02 µM |  | 2.4 µM | 1.52 µM | 1.47 µM | 1.98 µM | 1.72 µM | 1.27 µM |
